Test results from patent US20240158446A1, “CYCLIC COMPOUND HAVING SELECTIVE INHIBITORY ACTION ON KRAS OVER HRAS AND NRAS” (CHUGAI SEIYAKU KABUSHIKI KAISHA, priority 2021, published 2024).
Where two headings read alike, the source gives them in different places. *1 amine or outer side, *2 acyl side, *3 side chain or, on linkers, in order; H or OH if unused. Where a SMILES comes first, the peptide text is derived from it. Bridges are numbered along the chain shown (N, C = ends). [ ]: non-standard residue; d: D form. The star is where a group is joined. hPhe(3-Cl-4-CF3) = N[C@@H](CCc1ccc(C(F)(F)F)c(Cl)c1)C(=O)O; NPrPhe(4-CF3) = CCCN[C@@H](Cc1ccc(C(F)(F)F)cc1)C(=O)O; X7 = CCN([C@H](C(=O)[*:2])C1CCCC1)[*:1]; NMeGly(cPent) = CN[C@H](C(=O)O)C1CCCC1; Hyp = O=C(O)[C@@H]1C[C@@H](O)CN1; NMeD = CN[C@@H](CC(=O)O)C(=O)O; NMeL = CN[C@@H](CC(C)C)C(=O)O; hPip = O=C(O)[C@@H]1CCCCCN1; Morpholide = C1CN(*)CCO1; NMeA = CN[C@@H](C)C(=O)O; Ac5c = NC1(C(=O)O)CCCC1; Aze = O=C(O)[C@@H]1CCN1; NEtG = CCNCC(=O)O; Sar = CNCC(=O)O

Legend:
[1] = target: GDP-bound NRAS wild-type protein (Homo sapiens, UniProt P01111); test: Binding to NRAS by surface plasmon resonance (SPR), Single Cycle Kinetics; details: for NRAS/KRAS (ratio of KD value for NRAS to KD value for KRAS) / NRAS/KRAS (ratio of KD value with respect to NRAS to KD value with respect to KRAS): SPR, GDP-bound NRAS wild-type protein vs GDP-bound KRAS wild-type protein; for NRAS/KRAS (ratio of KD value with respect to GDP-bound NRAS wild-type protein to KD value with respect to KRAS): SPR KD ratio NRAS/KRAS, class symbols
GDP-bound NRAS wild-type protein, sequence (P01111 whole entry): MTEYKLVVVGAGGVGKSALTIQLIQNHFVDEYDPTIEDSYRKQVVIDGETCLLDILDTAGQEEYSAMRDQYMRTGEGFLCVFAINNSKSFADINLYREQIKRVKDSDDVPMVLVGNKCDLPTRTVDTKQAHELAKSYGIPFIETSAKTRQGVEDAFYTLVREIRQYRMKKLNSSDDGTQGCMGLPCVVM

[2] = target: GDP-bound KRAS wild-type protein (Homo sapiens, UniProt P01116); test: Binding to KRAS by surface plasmon resonance (SPR), Single Cycle Kinetics; details: GDP-bound KRAS wild-type protein, read-out: KRAS KD
GDP-bound KRAS wild-type protein, sequence (P01116 whole entry): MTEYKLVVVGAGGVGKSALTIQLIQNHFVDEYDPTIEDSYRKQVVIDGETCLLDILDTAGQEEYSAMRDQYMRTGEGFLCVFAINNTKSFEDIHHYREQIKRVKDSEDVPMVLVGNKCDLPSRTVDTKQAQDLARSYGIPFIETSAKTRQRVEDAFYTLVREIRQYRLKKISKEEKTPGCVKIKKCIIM

[3] = target: GDP-bound HRAS wild-type protein (Homo sapiens, UniProt P01112); test: Binding to HRAS by surface plasmon resonance (SPR), Single Cycle Kinetics; details: for HRAS/KRAS (ratio of KD value for HRAS to KD value for KRAS) / HRAS/KRAS (ratio of KD value with respect to HRAS to KD value with respect to KRAS): SPR, GDP-bound HRAS wild-type protein vs GDP-bound KRAS wild-type protein; for HRAS/KRAS (ratio of KD value with respect to GDP-bound HRAS wild-type protein to KD value with respect to KRAS): SPR KD ratio HRAS/KRAS, class symbols
GDP-bound HRAS wild-type protein, sequence (P01112 whole entry): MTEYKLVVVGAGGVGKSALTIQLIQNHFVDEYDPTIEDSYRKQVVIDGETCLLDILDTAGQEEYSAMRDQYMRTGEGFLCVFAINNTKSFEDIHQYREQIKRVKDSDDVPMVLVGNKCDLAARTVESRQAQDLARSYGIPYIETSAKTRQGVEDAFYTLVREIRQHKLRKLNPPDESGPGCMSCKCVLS

[4] = SPR Single Cycle Kinetics, 1:1 binding model

Compound | NRAS/KRAS (ratio of KD value for NRAS to KD value for KRAS) [1] | Kd ([2]; SPR, Single Cycle Kinetics) [nM] | HRAS/KRAS (ratio of KD value for HRAS to KD value for KRAS) [3] | Kd [2, 4] [nM] | NRAS/KRAS (ratio of KD value with respect to NRAS to KD value with respect to KRAS) [1] | HRAS/KRAS (ratio of KD value with respect to HRAS to KD value with respect to KRAS) [3] | NRAS/KRAS (ratio of KD value with respect to GDP-bound NRAS wild-type protein to KD value with respect to KRAS) [1] | HRAS/KRAS (ratio of KD value with respect to GDP-bound HRAS wild-type protein to KD value with respect to KRAS) [3]
CCO[C@@H]1C[C@H]2C(=O)NC3(CCCC3)C(=O)N(C)[C@@H](C3CCCC3)C(=O)N(C)[C@H](C(=O)N(C)C)CC(=O)N(C)[C@@H](CC)C(=O)N[C@@H]([C@@H](C)CC)C(=O)N(C)CC(=O)N(C)[C@H]3CC(C)=C(C)CN(C3=O)[C@@H](Cc3ccc(C(F)(F)F)cc3)C(=O)N(C)CC(=O)N[C@@H](CCc3cc(F)c(C(F)(F)F)c(F)c3)C(=O)N2C1 [PP1050] | C (A compound having a KD ratio of 0.1 or more and less than 3 is denoted as C) | 0.94 | C (A compound having a KD ratio of 0.1 or more and less than 3 is denoted as C) |  |  |  |  | 
CCCN1C(=O)[C@@H]2CCN2C(=O)[C@H](C)N(C)C(=O)[C@H]([C@@H](C)CC)NC(=O)[C@H](CC(C)C)N(C)C(=O)C[C@@H](C(=O)N2CCOCC2)N(C)C(=O)[C@H](C2CCCC2)N(C)C(=O)C2(CCCC2)NC(=O)[C@@H]2C[C@@H](OC)CN2C(=O)[C@H](CCc2ccc(C(F)(F)F)c(Cl)c2)NC(=O)CN(C)C(=O)[C@@H]1Cc1ccc(C(F)(F)F)cc1 [PP0283] ([NMeL]I[NMeA][Aze][NPrPhe(4-CF3)][Sar][hPhe(3-Cl-4-CF3)][Hyp](Me)[Ac5c][NMeGly(cPent)][NMeD]-Morpholide; lactam N-11) | C (A compound having a KD ratio of 0.1 or more and less than 3 is denoted as C) |  | C (A compound having a KD ratio of 0.1 or more and less than 3 is denoted as C) | 0.063 |  |  |  | 
CC[C@H](C)[C@@H]1NC(=O)[C@H](CC(C)C)N(C)C(=O)C[C@@H](C(=O)N2CCOCC2)N(C)C(=O)[C@H](C2CCCC2)N(C)C(=O)C2(CCCC2)NC(=O)[C@@H]2CCCN2C(=O)[C@H](CCc2ccc(C(F)(F)F)c(Cl)c2)NC(=O)CN(C)C(=O)[C@H](C2CCCC2)N(CC)C(=O)[C@@H]2CCN2C(=O)[C@H](C)N(C)C1=O [PP0003] ([NMeL]I[NMeA][Aze][X7][Sar][hPhe(3-Cl-4-CF3)]P[Ac5c][NMeGly(cPent)][NMeD]-Morpholide; lactam N-11) | C (A compound having a KD ratio of 0.1 or more and less than 3 is denoted as C) |  | C (A compound having a KD ratio of 0.1 or more and less than 3 is denoted as C) | 2 |  |  |  | 
CC[C@H](C)[C@@H]1NC(=O)[C@H](CC(C)C)N(C)C(=O)C[C@@H](C(=O)N2CCOCC2)N(C)C(=O)[C@H](C2CCCC2)N(C)C(=O)C2(CCCC2)NC(=O)[C@H](C)N(CC)C(=O)[C@H](CCc2cc(F)c(C(F)(F)F)c(F)c2)NC(=O)CN(C)C(=O)[C@H](Cc2ccc(C(F)(F)F)cc2)N2CCCCC[C@@H](C2=O)N(C)C(=O)CN(C)C1=O [PP0515] |  |  |  | 29 | B (a compound having 3 or more and less than 10 is denoted as B) | B (a compound having 3 or more and less than 10 is denoted as B) |  | 
CCO[C@@H]1C[C@H]2C(=O)NC3(CCC3)C(=O)N(C)[C@@H](C3CCCC3)C(=O)N(C)[C@H](C(=O)N(C)C)CC(=O)N(C)[C@@H](CC3CCCC3)C(=O)N[C@@H]([C@@H](C)CC)C(=O)N(C)CC(=O)N(C)[C@H]3C/C=C\CCN(C3=O)[C@@H](Cc3ccc(C)cc3)C(=O)N(C)CC(=O)N[C@@H](CCc3cc(Cl)c(C(F)(F)F)c(Cl)c3)C(=O)N2C1 [PP2679] |  |  |  | 0.099 |  |  | A (a compound having 10 or more and less than 20 is denoted as A) | A (a compound having 10 or more and less than 20 is denoted as A)
CCCN1C(=O)[C@@H]2CCN2C(=O)CN(C)C(=O)[C@H]([C@@H](C)CC)NC(=O)[C@H](CC(C)C)N(C)C(=O)C[C@@H](C(=O)N(C)C)N(C)C(=O)[C@H](C2CCCC2)N(C)C(=O)C2(CCCC2)NC(=O)[C@@H]2CCCN2C(=O)[C@H](CCc2ccc(C(F)(F)F)c(Cl)c2)NC(=O)CN(C)C(=O)[C@@H]1Cc1ccc(C(F)(F)F)cc1 [PP0440] ([NMeL]I[Sar][Aze][NPrPhe(4-CF3)][Sar][hPhe(3-Cl-4-CF3)]P[Ac5c][NMeGly(cPent)][NMeD]-NMe2; lactam N-11) |  |  |  | 0.046 | C (A compound having a KD ratio of 0.1 or more and less than 3 is denoted as C) | B (a compound having 3 or more and less than 10 is denoted as B) |  | 
CC[C@H](C)[C@@H]1NC(=O)[C@H](CC(C)C)NC(=O)C[C@@H](C(=O)N2CCOCC2)N(C)C(=O)[C@H](C2CCCC2)N(C)C(=O)C2(CCCC2)NC(=O)[C@@H]2CCCN2C(=O)[C@H](CCc2cc(F)c(C(F)(F)F)c(F)c2)NC(=O)CN(C)C(=O)[C@H](Cc2ccc(C(F)(F)F)cc2)N2CCCCC[C@@H](C2=O)N(C)C(=O)CN(C)C1=O [PP0516] |  |  |  | 10 | B (a compound having 3 or more and less than 10 is denoted as B) | B (a compound having 3 or more and less than 10 is denoted as B) |  | 
C#CCN1CC(=O)N(C)[C@H]2C/C=C\CCN(C2=O)[C@@H](Cc2ccc(C(F)(F)F)cc2)C(=O)N(C)CC(=O)N[C@@H](CCc2cc(F)c(C(F)(F)F)c(F)c2)C(=O)N2C[C@H](OCC)C[C@H]2C(=O)NC2(CC(C)(C)C2)C(=O)N(C)[C@@H](C2CCCC2)C(=O)N(C)[C@H](C(=O)N(C)C)CC(=O)N(C)[C@@H](CC)C(=O)N[C@@H]([C@@H](C)CC)C1=O [PP2087] | A (a compound having 10 or more and less than 20 is denoted as A) | 0.15 | A (a compound having 10 or more and less than 20 is denoted as A) |  |  |  |  | 
CCCN1C(=O)CN(C)C(=O)CN(CC)C(=O)[C@H]([C@@H](C)CC)NC(=O)[C@@H]2CCCCCN2C(=O)C[C@@H](C(=O)N2CCOCC2)N(C)C(=O)[C@H](C2CCCC2)N(C)C(=O)C2(CCCC2)NC(=O)[C@@H]2CCCN2C(=O)[C@H](CCc2ccc(C(F)(F)F)c(Cl)c2)NC(=O)CN(C)C(=O)[C@@H]1Cc1ccc(C(F)(F)F)cc1 [PP0289] ([hPip]I[NEtG][Sar][NPrPhe(4-CF3)][Sar][hPhe(3-Cl-4-CF3)]P[Ac5c][NMeGly(cPent)][NMeD]-Morpholide; lactam N-11) | B (a compound having 3 or more and less than 10 is denoted as B) |  | B (a compound having 3 or more and less than 10 is denoted as B) | 2.2 |  |  |  | 
CCO[C@@H]1C[C@H]2C(=O)NC3(CCC3)C(=O)N(C)[C@@H](C3CCCC3)C(=O)N(C)[C@H](C(=O)N(C)C)CC(=O)N(C)[C@@H](CC(C)(C)C)C(=O)N[C@@H]([C@@H](C)CC)C(=O)N(C)CC(=O)N(C)[C@H]3C/C=C\CCN(C3=O)[C@@H](Cc3ccc(C(F)(F)F)cc3)C(=O)N(C)CC(=O)N[C@@H](CCc3cc(F)c(C(F)(F)F)c(F)c3)C(=O)N2C1 [PP1117, (2S,8S,12R,14S,20S,23S,27S,30S,36S,38Z)-20-cyclopentyl-8-[2-[3,5-difluoro-4-(trifluoromethyl)phenyl]ethyl]-27-(2,2-dimethylpropyl)-12-ethoxy-N,N,4,19,22,26,32,35-octamethyl-30-[(1S)-1-methylpropyl]-3,6,9,15,18,21,25,28,31,34,42-undecaoxo-2-[[4-(trifluoromethyl)phenyl]methyl]spiro[1,4,7,10,16,19,22,26,29,32,35-undecazatricyclo[34.5.1.0^10,14]dotetracont-38-ene-17,1′-cyclobutane]-23-carboxamide] | A (a compound having 10 or more and less than 20 is denoted as A) | 0.07 | A (a compound having 10 or more and less than 20 is denoted as A) |  |  |  |  | 
CCCCO[C@H]1CCN2C(=O)[C@H](CCc3cc(F)c(C(F)(F)F)c(F)c3)NC(=O)CN(C)C(=O)[C@H](Cc3ccc(C(F)(F)F)cc3)N3CCCC[C@@H](C3=O)N(C)C(=O)CN(C)C(=O)[C@H]([C@@H](C)CC)NC(=O)[C@H](CC(C)C)N(C)C(=O)C[C@@H](C(=O)N3CCOCC3)N(C)C(=O)[C@H](C3CCCC3)N(C)C(=O)C3(CCC3)NC(=O)[C@H]12 [PP1071] | B (a compound having 3 or more and less than 10 is denoted as B) | 0.1 | B (a compound having 3 or more and less than 10 is denoted as B) |  |  |  |  | 
CCC(CC)[C@H]1C(=O)N(C)[C@H](C(=O)N(C)C)CC(=O)N(C)[C@@H](COC)C(=O)N[C@@H]([C@@H](C)CC)C(=O)N(C)CC(=O)N(C)[C@H]2C/C=C\CCN(C2=O)[C@@H](Cc2ccc(C(F)(F)F)cc2)C(=O)N(C)CC(=O)N[C@@H](CCc2cc(F)c(C(F)(F)F)c(F)c2)C(=O)N2CC[C@H]2C(=O)NC2(CC(C)(C)C2)C(=O)N1C [PP2918] |  |  |  | 1.8 |  |  | AA (a compound having 20 or more is denoted as AA) | A (a compound having 10 or more and less than 20 is denoted as A)
CCC[C@H]1C(=O)N[C@@H]([C@@H](C)CC)C(=O)N(C)CC(=O)N(C)[C@H]2C/C=C\CCN(C2=O)[C@@H](Cc2ccc(C)cc2)C(=O)N(C)CC(=O)N[C@@H](CCc2cc(Cl)c3sccc3c2)C(=O)N2C[C@H](OCC)C[C@H]2C(=O)NC2(CC(C)(C)C2)C(=O)N(C)[C@@H](C(CC)CC)C(=O)N(C)[C@H](C(=O)N(C)C)CC(=O)N1C [PP2890] |  |  |  | 0.42 |  |  | AA (a compound having 20 or more is denoted as AA) | A (a compound having 10 or more and less than 20 is denoted as A)
